In the series the test system is Bin1b. As to the kind of experiment: In vivo antisense oligonucleotide treatment, injection into mid-caput epididymis. On the set-up: species or system rat. On the procedure: Sperm motility analysis. For the motility analysis, we used an HTM-IVOS system (version 10.8, Hamilton-Thorn Research) with the following settings: objective, ×4; minimum cell size, six pixels; minimum contrast, 65; minimum static contrast, 30; low VAP cut-off, 30.0; low VSL cut-off, 20.0; threshold straightness, 50%; static head size, 0.29-10.0; static head intensity, 0.29-1.11; magnification, 0.82. Sixty frames were acquired at a frame rate of 60 Hz. At least 200 tracks were measured for each specimen at 37° C. We recorded at least 30 points for each tract. The playback function of the system was used to check its accuracy.
Flow cytometry analysis. Rat sperm were stained with Bin1b polyclonal antibody at a final concentration of 1:200. In control samples, the antibody was replaced by preimmune serum at the same concentration. After incubation at 4° C. overnight, the sperm were washed twice with PBS containing 4 mg ml^−1 bovine serum albumin and incubated for 45 min at 22° C. with the secondary antibody, fluorescein isothiocyanate (FITC)-conjugated goat antibody against rabbit IgG (Zymed Laboratories) at a dilution of 1:50. After three washes, the sperm were analysed on a flow cytometer (Beckman Coulter). We analyzed 10,000 individual sperm per sample for FITC fluorescence emissions. A negative control of sperm stained by normal rabbit IgG was used to set the threshold for specific Bin1b staining. The percentage of sperm specifically stained for Bin1b was obtained by subtracting background fluorescence.
In vivo antisense oligonucleotide treatment. The skin covering the testis of a male Sprague-Dawley rat (aged >3 months) was cut open under anaesthesia and 30 μl of Bin1b antisense oligonucleotide (5′-[…]-3′; SEQ ID NO:3) or control sense oligonucleotide (5′-[…]-3′; SEQ ID NO:4) solution (20 μg ml^−) was injected into the proximal side of the mid-caput epididymis. The sperm were collected for assessment 48 h after injection. The use of animals in this project was authorized by the Animal Research Ethics Committee of The Chinese University of Hong Kong.

The mark [1] stands for this setting: versus sense oligonucleotide control, 48 h after injection.

In the case of “5′-AGAGTAACAAAACCTTCATG-3′ (listed as DNA, chemistry not given here) [antisense Bin1b oligonucleotide]”, for the setting “20 μg ml^−1, versus sense control”, the “expression of Bin1b messenger RNA in the caput epididymis (semiquantitative RT-PCR)” value is on record as “significantly suppressed”. Further, the “Bin1b binding to sperm collected in the distal caput region (flow cytometry)” value (versus sense control) is reported as “considerable reduction”. Also, the “motility of sperm from the distal caput epididymis” value under setting [1] was “reduced sperm motility” and the “motility of sperm from the distal caput epididymis” value (versus sense oligonucleotide control, 48 h after injection, listed as Bin1b antisense oligonucleotide) is reported as “significantly lower”. In addition, the “progressive movement of sperm from the distal caput epididymis” value under setting [1] is listed as “significantly lower”.

Values taken from patent publication US7494780B2, “Epididymis-specific defensin for evaluating and regulating male fertility” (The Chinese University of Hong Kong, priority 2004, dated 2009).
